The results in this text go back to patent US5591741A, “Fungicidal spiroheterocyclic derivatives” (American Cyanamid Company, priority 1993, dated 1997).

Structures are written as SMILES.

Assay [1] concerns Plasmopara viticola. Kind of assay: Antisporulant activity against vine downy mildew (PVA). The class given is in vivo. Conditions: vine leaves, antisporulant foliar spray, 600 ppm, 750 l/ha. In outline:
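Cabernet Sauvignon vines (~8 cm) inoculated on lower leaf surfaces with 5×10^4 zoosporangia/ml, held 24 h at 21° C high humidity then 24 h glasshouse. Infected leaves sprayed underside with 600 ppm compound in 1:1 water/acetone, 0.04% Tween 20, 750 l/ha; 96 h glasshouse, 24 h humidity. Sporulating leaf area rated versus control.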

The subject of assay [2] is Alternaria solani. The assay is described as follows: Activity against tomato early blight (AS). The format is in vivo. Conditions: Table VI; tomato seedlings, contact prophylactic foliar spray, 4 days. In outline: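 Foliar contact prophylactic spray on tomato seedlings (cv Outdoor Girl, second true leaf expanded) in acetone/water 50:50 with 0.04% Tween 20; 24 h at 20° C, 40% R.H., then inoculation with 10^4 spores/ml A. solani conidia. Kept moist at 21° C; lesion cover rated 4 days post-inoculation against untreated or diluent-sprayed controls.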

The subject of assay [3] is Botrytis cinerea. Kind of assay: Direct protectant activity against broad bean grey mould (BCB). The class given is in vivo. The conditions noted are these: direct protectant foliar spray, 600 ppm, 4 days. The gist of the method: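 Broad bean plants (cv The Sutton, two leaf pairs) sprayed on upper leaf surfaces at 600 ppm, then inoculated 24 h later with 10^6 conidia/ml. Kept 4 days at 22 °C, high humidity; disease control rated from % leaf area with lesions against untreated or diluent controls.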

The test system of assay [4] is Leptosphaeria nodorum. Kind of assay: Activity against wheat leafspot (LN). The format is in vivo. The conditions noted are these: direct therapeutic foliar spray, 600 ppm, 6-8 days. In outline: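 Wheat cv Norman at single-leaf stage spray-inoculated with 1.5×10^6 conidia/ml, held 24 h at high humidity, then sprayed therapeutically with test compound at 600 ppm. Kept 6-8 days at 22° C, 70% humidity; lesion density per leaf rated against untreated or diluent-sprayed controls.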

Assay [5] has as its system Erysiphe graminis f.sp. hordei. Kind of assay: Activity against barley powdery mildew, direct therapeutic (EGT). The class given is in vivo. Conditions: direct therapeutic foliar spray, 600 ppm, up to 7 days. The gist of the method: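 Barley seedlings (cv. Golden Promise, single-leaf stage) were dusted with mildew conidia one day before a therapeutic foliar spray of 600 ppm compound. Plants were kept at 18 °C and 40% humidity for up to 7 days, and sporulating leaf area was rated against untreated or diluent-sprayed controls.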

The subject of assay [6] is Erysiphe graminis f.sp. hordei. The assay is described as follows: Direct protectant activity against barley powdery mildew (EGP). The format is in vivo. The conditions noted are these: direct protectant foliar spray, 8 days. In outline: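 Barley seedlings (cv Golden Promise, single-leaf stage) were foliar-sprayed, held 24 h at 18 °C/40% RH, then dusted with mildew conidia. After 8 days at 18 °C/40% RH, sporulating leaf area was scored as a rating against untreated or diluent-sprayed controls.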

Assay [7] has as its system Phytophthora infestans. The class given is in vivo. The conditions noted are these: tomato, direct protectant foliar spray.
Assay [8] relates to Pseudocercosporella herpotrichoides. Kind of assay: Activity against wheat eyespot in-vitro (PHI). The class given is cell-based. The conditions noted are these: 10 ppm, 10 days, 20° C., mycelial growth. The gist of the method:
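P. herpotrichoides mycelial fragments (5×10^4/ml) grown in half-strength PDB with compound at 10 ppm final, added from acetone. Incubated 10 days at 20 °C; mycelial growth rated against untreated or diluent controls.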

The test system of assay [9] is Rhizoctonia solani. The assay is described as follows: Activity against Rhizoctonia in-vitro (RSI). The class given is cell-based. Conditions: 10 ppm, 10 days, 20° C., mycelial growth. In outline:
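R. solani mycelial fragments (5×10^4/ml) in half-strength Potato Dextrose Broth with compound added from acetone to 10 ppm final. Mycelial growth assessed after 10 days at 20° C, rated against untreated or diluent control.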

For assay [10], the system named is Venturia inaequalis. The assay is described as follows: Activity against apple scab in-vitro (VII). The class given is cell-based. Conditions: 10 ppm, 10 days, 20° C., mycelial growth. The gist of the method:
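Compound in acetone was tested at 10 ppm final in half-strength Potato Dextrose Broth inoculated with V. inaequalis mycelial fragments and spores at 5×10^4 propagules/ml. After 10 days at 20° C, mycelial growth was rated against untreated or diluent controls.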

The subject of assay [11] is Pyricularia oryzae. The format is in vivo. Conditions: rice seedlings, direct therapeutic foliar spray, 600 ppm, 4-5 days.

With `CCCCCN(CC(C)C)C1COC2(CCC(C(C)(C)C)CC2)C1` (stereo not shown) [Compound 75], the “disease control rating PVA” value in assay [1] is 0 (less than 50% disease control). Further, the “disease control rating AS” value in assay [2] is on record as 0 (less than 50% disease control). In assay [3], the “disease control rating BCB” value is recorded as 2 (greater than 80% disease control). Besides, in [4], the “disease control rating LN” value is listed as 0 (less than 50% disease control). Also, the “disease control rating EGT” value in assay [5] is listed as 2 (greater than 80% disease control). Moreover, in assay [6], the “disease control rating EGP” value is 2 (greater than 80% disease control). In assay [7], the “disease control rating PIP” value is recorded as 0 (less than 50% disease control). For the same molecule, the “disease control rating PHI” value in assay [8] is on record as 0 (less than 50% disease control). Moreover, the “disease control rating RSI” value in assay [9] was 0 (less than 50% disease control). For the same molecule, the “disease control rating VII” value in assay [10] is given as 0 (less than 50% disease control). Further, the “disease control rating PO” value in assay [11] is listed as 0 (less than 50% disease control).
On to `CCCCCN(C(C)C)C1COC2(CCC(C(C)(C)C)CC2)C1` (stereo not shown) [Compound 76], for which the “disease control rating PVA” value in [1] is 0 (less than 50% disease control). Moreover, the “disease control rating AS” value in [2] was 0 (less than 50% disease control). Also, in [3], the “disease control rating BCB” value is listed as 0 (less than 50% disease control). The “disease control rating LN” value in assay [4] is 0 (less than 50% disease control). Moreover, the “disease control rating EGT” value in [5] was 2 (greater than 80% disease control). Further, in assay [6], the “disease control rating EGP” value is 2 (greater than 80% disease control). Also, the “disease control rating PIP” value in assay [7] is reported as 0 (less than 50% disease control). In [8], the “disease control rating PHI” value is listed as 0 (less than 50% disease control). In assay [9], the “disease control rating RSI” value is reported as 0 (less than 50% disease control). For the same molecule, the “disease control rating VII” value in assay [10] was 0 (less than 50% disease control). For the same molecule, in assay [11], the “disease control rating PO” value was 0 (less than 50% disease control).
In the case of `CCCCCN(C1CCCCC1)C1COC2(CCC(C(C)(C)C)CC2)C1` (stereo not shown) [Compound 77], in [1], the “disease control rating PVA” value is reported as 0 (less than 50% disease control). Also, in assay [2], the “disease control rating AS” value is reported as 0 (less than 50% disease control). In [3], the “disease control rating BCB” value is listed as 0 (less than 50% disease control). The “disease control rating LN” value in assay [4] is 0 (less than 50% disease control). Also, the “disease control rating EGT” value in assay [5] is listed as 2 (greater than 80% disease control). Further, the “disease control rating EGP” value in assay [6] was 2 (greater than 80% disease control). Also, the “disease control rating PIP” value in assay [7] is on record as 0 (less than 50% disease control). In addition, the “disease control rating PHI” value in [8] is 0 (less than 50% disease control). In addition, the “disease control rating RSI” value in assay [9] is 0 (less than 50% disease control). Moreover, the “disease control rating VII” value in [10] was 0 (less than 50% disease control). Moreover, in [11], the “disease control rating PO” value is given as 0 (less than 50% disease control).
With `CCCCCN(C)C1COC2(CCC(C(C)(C)C)CC2)C1` (stereo not shown) [Compound 78], in [1], the “disease control rating PVA” value was 0 (less than 50% disease control). In addition, in [2], the “disease control rating AS” value is given as 0 (less than 50% disease control). The “disease control rating BCB” value in assay [3] is 1 (about 50-80% disease control). The “disease control rating LN” value in [4] is on record as 0 (less than 50% disease control). In addition, the “disease control rating EGT” value in [5] is on record as 2 (greater than 80% disease control). Moreover, the “disease control rating EGP” value in assay [6] was 2 (greater than 80% disease control). In assay [7], the “disease control rating PIP” value was 0 (less than 50% disease control). In addition, the “disease control rating PHI” value in [8] is reported as 0 (less than 50% disease control). Besides, the “disease control rating RSI” value in assay [9] is 0 (less than 50% disease control). Besides, the “disease control rating VII” value in assay [10] is recorded as 0 (less than 50% disease control). For the same molecule, the “disease control rating PO” value in [11] is recorded as 0 (less than 50% disease control).
Turning to `C=CCN(C1CCCCC1)C1COC2(CCC(C(C)(C)C)CC2)C1` (stereo not shown) [Compound 79], in [1], the “disease control rating PVA” value is 0 (less than 50% disease control). Moreover, the “disease control rating AS” value in assay [2] is given as 0 (less than 50% disease control). Moreover, in assay [3], the “disease control rating BCB” value is on record as 1 (about 50-80% disease control). The “disease control rating LN” value in assay [4] is 0 (less than 50% disease control). For the same molecule, the “disease control rating EGT” value in [5] is 2 (greater than 80% disease control). Besides, the “disease control rating EGP” value in assay [6] was 2 (greater than 80% disease control). Moreover, the “disease control rating PIP” value in assay [7] is recorded as 2 (greater than 80% disease control). In assay [8], the “disease control rating PHI” value was 0 (less than 50% disease control). In addition, in assay [9], the “disease control rating RSI” value was 0 (less than 50% disease control). In addition, the “disease control rating VII” value in assay [10] is on record as 0 (less than 50% disease control). For the same molecule, the “disease control rating PO” value in [11] is 0 (less than 50% disease control).
As for `CN(C1CCCCC1)C1COC2(CCC(C(C)(C)C)CC2)C1` (stereo not shown) [Compound 80], in assay [1], the “disease control rating PVA” value is listed as 0 (less than 50% disease control). For the same molecule, the “disease control rating AS” value in assay [2] is listed as 0 (less than 50% disease control). Further, in assay [3], the “disease control rating BCB” value is recorded as 1 (about 50-80% disease control). In addition, in assay [4], the “disease control rating LN” value is reported as 1 (about 50-80% disease control). For the same molecule, the “disease control rating EGT” value in assay [5] is reported as 2 (greater than 80% disease control). Besides, the “disease control rating EGP” value in assay [6] was 2 (greater than 80% disease control). For the same molecule, the “disease control rating PIP” value in assay [7] is on record as 2 (greater than 80% disease control). Besides, the “disease control rating PHI” value in assay [8] is 0 (less than 50% disease control). For the same molecule, the “disease control rating RSI” value in assay [9] is given as 1 (about 50-80% disease control). The “disease control rating VII” value in assay [10] is 0 (less than 50% disease control). The “disease control rating PO” value in [11] was 1 (about 50-80% disease control).
Turning to `CC(C)(C)NC1COC2(CCC(C(C)(C)C)CC2)C1` (stereo not shown) [Compound 81], in assay [1], the “disease control rating PVA” value was 0 (less than 50% disease control). In [2], the “disease control rating AS” value is 0 (less than 50% disease control). Besides, the “disease control rating BCB” value in [3] is on record as 2 (greater than 80% disease control). In addition, in [4], the “disease control rating LN” value is recorded as 0 (less than 50% disease control). Further, the “disease control rating EGT” value in assay [5] is reported as 2 (greater than 80% disease control). For the same molecule, in assay [6], the “disease control rating EGP” value was 2 (greater than 80% disease control). In addition, the “disease control rating PIP” value in assay [7] is 2 (greater than 80% disease control). Besides, the “disease control rating PHI” value in [8] is 0 (less than 50% disease control). Further, in assay [9], the “disease control rating RSI” value is recorded as 0 (less than 50% disease control). Also, the “disease control rating VII” value in [10] is reported as 0 (less than 50% disease control). Moreover, the “disease control rating PO” value in assay [11] was 0 (less than 50% disease control).
For `CC(C)(C)C1CCC2(CC1)CC(NCC1CCCCC1)CO2` (stereo not shown) [Compound 82], the “disease control rating PVA” value in assay [1] is on record as 0 (less than 50% disease control). Besides, in assay [2], the “disease control rating AS” value is listed as 0 (less than 50% disease control). In addition, the “disease control rating BCB” value in [3] is 2 (greater than 80% disease control). In addition, the “disease control rating LN” value in assay [4] is on record as 1 (about 50-80% disease control). Also, the “disease control rating EGT” value in assay [5] is listed as 2 (greater than 80% disease control). Besides, the “disease control rating EGP” value in assay [6] is listed as 2 (greater than 80% disease control). Besides, the “disease control rating PIP” value in assay [7] is 0 (less than 50% disease control). The “disease control rating PHI” value in assay [8] is given as 0 (less than 50% disease control). Further, the “disease control rating RSI” value in [9] is 0 (less than 50% disease control). The “disease control rating VII” value in assay [10] is reported as 0 (less than 50% disease control). Moreover, in assay [11], the “disease control rating PO” value was 0 (less than 50% disease control).
